Source: patent publication US20210072244A1, “METHODS AND COMPOSITIONS FOR TREATING MELANOMA RESISTANT” (INSERM (INSTITUT NATIONAL DE LA SANTÉ ET DE LA RECHERCHE …, priority 2018, published 2021)
Like-named read-outs stand apart in the source and are kept apart here.

Experiments:
NAMPT [1] = assay: NAMPT expression in melanoma cells (Western blot, QPCR); type: cell-based, human
Experimental: The proteins were visualized using the ECL system (Amersham).
The mRNA was isolated using TRIzol (Invitrogen) according to a standard procedure. QRT-PCR was performed using SYBR® Green I (Eurogentec, Seraing, Belgium) and Multiscribe Reverse Transcriptase (Applied Biosystems) and subsequently monitored using the ABI Prism 7900 Sequence Detection System (Applied Biosystems, Foster City, Calif.). The detection of the SB34 gene was used to normalize the results. Primer sequences for each cDNA were designed using either Primer Express Software (Applied Biosystems) or qPrimer depot (http://primerdepot.nci.nih.gov), and these sequences are available upon request.

ERK = ERK phosphorylation (Western blot); type: cell-based, human; conditions: for ERK phosphorylation levels: A375 melanoma cells, data not shown; for ERK phosphorylation: A375 and WM9 cells
Experimental: (§1) Western blotting was performed as previously described (Hilmi et al. 2008; Bertolotto et al. 2011). Briefly, cell lysates (30 μg) were separated using SDS-PAGE, transferred onto a PVDF membrane and subsequently exposed to the appropriate antibodies, anti-ERK2 (Santa Cruz Biotechnology, sc-1647 clone D-2), anti-phospho-ERK1/2 (Thr202/Tyr204) (Cell Signaling Technology Inc., #2370), anti-BRAF (Santa Cruz Biotechnology, sc-5284 clone F-7), anti-NAMPT (Sigma, #B5812), antiphospho-STAT5 (Tyr694) (Ozyme #9351), anti-STAT5 (Ozyme #9363), and anti-HSP90 (Santa Cruz biotechnology, #sc-13119). The proteins were visualized using the ECL system (Amersham). The western blots shown are representative of at least 3 independent experiments.

STAT5 = STAT5 phosphorylation (Western blot); type: cell-based, human; conditions: A375 and WM9 cells
Experimental: as §1

[2] = tested on: intracellular NAD+ in melanoma cells; assay: Intracellular NAD+ measurement (NAD/NADH Quantitation Kit); type: cell-based, human; conditions: for intracellular NAD+ levels: 5 μM, 24 h (FIG. 1B)
Experimental: Human melanoma cell lines and short-term cultures derived from different patients with metastatic malignant melanoma cells were grown in DMEM supplemented with 7% FBS at 37° C. in a humidified atmosphere containing 5% CO2. PLX4032-sensitive and PLX4032-resistant melanoma cells were previously described (Bonet et al. 2012; Ohanna et al. 2014). Lipofectamine™ RNAiMAX and opti-MEM medium were purchased from Invitrogen (San Diego, Calif., USA). FK866 was obtained from Sigma, U0126 and GSK1120212 were purchased from Euromedex, and PD98059 and SCH77294 were obtained from Selleck Chemicals. The STAT5 inhibitor (CAS 285986-31-4) was purchased from Sigma. Intracellular NAD+ was measured using the NAD/NADH Quantitation Kit from Sigma according to the manufacturer's instructions.

human NAMPT promoter = assay: NAMPT promoter luciferase reporter assay; type: cell-based
[3] = tested on: BRAFi-resistant WM9 melanoma cell xenografts; assay: PLX4032-resistant WM9 (WM9R) xenograft growth in nude mice; type: in vivo; conditions: FIG. 5F
Experimental: (§2) Animal experiments were performed in accordance with French law and approved by a local institutional ethical committee. The animals were maintained in a temperature controlled facility (22° C.) on a 12-h light/dark cycle and provided free access to food (standard laboratory chow diet from UAR, Epinay-S/Orge, France). Human WM9 melanoma cells, responsive or resistant to PLX4032 (2×10^6 cells), were subcutaneously inoculated into 8-week-old female, immune-deficient, athymic, nude FOXN1nu mice (Harlan Laboratory). When the tumors became palpable (0.1-0.2 cm3), the mice received an intraperitoneal injection of PLX4032 (25 mg/kg), FK866 (15 mg/kg) or both drugs dissolved in a mixture of Labrafil M1944 Cs, dimethylacetamide, and Tween 80 (90:9:1, v/v/v) three times per week. Control mice were injected with Labrafil alone. The growth tumor curves were determined after measuring the tumor volume using the equation V=(L×W2)/2. At the end of the experiment, the mice were euthanized by cervical dislocation, and the tumors were harvested for immunofluorescence.

[4] = tested on: BRAFWT human melanoma cells; assay: Cell proliferation (cell counting), BRAFWT cells; type: cell-based; conditions: data not shown
Experimental: (§3) The cells were seeded onto 12-well dishes (10×10^3 cells), and at 48 h post transfection or treatment, the cells were trypsinized from days 1 to 4, counted in triplicate using a hemocytometer. The experiments were performed at least three times.

[5] = tested on: UACC62 and WM9 human melanoma cell lines (BRAFV600E); assay: Global metabolic profiling by UPLC-MS/MS; type: cell-based; conditions: FIG. 1A
Experimental: Briefly, samples were prepared using the automated MicroLab STAR® system (Hamilton Company). Recovery standards were added prior to the first step in the extraction process for QC purposes. Cell lysates were precipitated using methanol under vigorous shaking for 2 min, followed by centrifugation. The resulting extract was divided into five fractions: two samples for analysis using two separate reversephase (RP)/UPLC-MS/MS methods with positive ion mode electrospray ionization (ESI), one sample for analysis through RP/UPLC-MS/MS with negative ion mode ESI, one sample for analysis through HILIC/UPLC-MS/MS with negative ion mode ESI, and one sample was reserved for backup. The samples were briefly placed on a TurboVap® (Zymark) to remove the organic solvent. The sample extracts were stored overnight under nitrogen prior to preparation for analysis. Chromatography analyses were performed using Waters ACQUITY ultra-performance liquid chromatography (UPLC) and a Thermo Scientific Q-Exactive high resolution/accurate mass spectrometer interfaced with a heated electrospray ionization (HESI-II) source and Orbitrap mass analyzer operated at 35,000 mass resolution. The sample extract was dried and subsequently reconstituted in solvents compatible to each method (Miller et al. 2015). […]

[6] = tested on: BRAFV600E human melanoma cells; assay: Cell proliferation / viability (cell counting), BRAFV600E cells; type: cell-based
Experimental: as §3

NAMPT [7] = conditions: public microarray data GSE51115, melanoma cell lines; cited from earlier work
[8] = tested on: BRAFi-resistant A375 (A375R) and WM9 (WM9R) melanoma cells; assay: Proliferation and PLX4032 sensitivity of BRAFi-resistant melanoma cells; type: cell-based, human
Experimental: as §3

[9] = Body weight of treated mice; type: in vivo; conditions: FK866 15 mg/kg, not shown
Experimental: as §2

[10] = tested on: A375R melanoma cell xenografts; assay: PLX4032-resistant A375 (A375R) xenograft growth in mice; type: in vivo
[11] = tested on: WM9 melanoma cell xenograft; assay: WM9 melanoma xenograft growth in nude mice; type: in vivo; conditions: 15 mg/kg every two days, athymic nude mice, versus vehicle, FIG. 4C
Experimental: as §2

[12] = A375 melanoma cells, data not shown

With O=C(Nc1ccc2[nH]nc(-c3ccncc3)c2c1)[C@@H]1CCN(CC(=O)N2CCN(c3ccc(-c4ncccn4)cc3)CC2)C1 [SCH77294] the NAMPT expression (NAMPT [1]; [12]) was “inhibition of NAMPT expression” and the ERK phosphorylation levels (ERK) was “inhibition of ERK phosphorylation levels”.

For O=C(N/N=C/c1coc2ccccc2c1=O)c1cccnc1 [STAT5 inhibitor], the STAT5 phosphorylation (STAT5) was “efficiently reduced”, the NAMPT expression (NAMPT [1]; BRAF and STAT5 inhibitors, data not shown) was “decreased” and the “NAD+ levels” value ([2]; A375 and WM9 cells exposed to STAT5 inhibitor, FIG. 3F) was “decreased”. For the same compound, the “BRAFV600E-stimulated NAMPT promoter activity” value (human NAMPT promoter; 501MEL cells transfected with BRAFV600E vector, 100 μM, 48 h (FIG. 3E)) was “decreased”, the “basal NAMPT promoter activity” value (human NAMPT promoter; 501MEL cells, control vector, 100 μM, 48 h (FIG. 3E)) was “decreased” and the ERK phosphorylation (ERK) was “did not affect”.

For CC(=O)Nc1cccc(-n2c(=O)n(C3CC3)c(=O)c3c(Nc4ccc(I)cc4F)n(C)c(=O)c(C)c32)c1 [GSK1120212], the NAMPT expression (NAMPT [1]; [12]) was “inhibition of NAMPT expression” and the ERK phosphorylation levels (ERK) was “inhibition of ERK phosphorylation levels”.

In the case of CCCS(=O)(=O)Nc1ccc(F)c(C(=O)c2c[nH]c3ncc(-c4ccc(Cl)cc4)cc23)c1F [PLX4032], the “tumor growth of BRAFi-resistant WM9 xenografts” value [3] is reported as “not affected”, the STAT5 phosphorylation (STAT5) is reported as “inhibited” and the “NAMPT expression, protein level” value (NAMPT [1]; 4 different BRAFV600E melanoma cells, data not shown) is reported as “reduced NAMPT expression”. For the same compound, the “NAMPT expression, mRNA level” value (NAMPT [1]; BRAFV600E melanoma cells, QPCR, FIG. 2A) was “reduced NAMPT expression”, the NAMPT expression (NAMPT [1]; BRAFWT human melanoma cells, data not shown) was “No inhibition” and the “intracellular NAD+ levels” value ([2]; BRAFWT human melanoma cells) was “not in BRAFWT human melanoma cells”. For the same compound, the “intracellular NAD+ levels” value ([2]; all BRAFV600E-mutated melanoma cell lines and short-term cultures) was “reduced intracellular NAD+ levels”, the cell proliferation [4] was “not in BRAFWT human melanoma cells” and the NAMPT promoter activity (human NAMPT promoter; A375 and WM9 cells, FIGS. 3A-B) was “dose-dependent decrease”. For the same compound, the “NAMPT promoter activity, significance over doses” value (human NAMPT promoter; A375 cells, 48 h, p<0.0034) was “all the PLX4032 doses lead to significant decrease”, the “PLX4032 dose giving significant decrease in NAMPT promoter activity” value (human NAMPT promoter; WM9 cells, 48 h, p<0.014, in µM) was greater than 0.005 and the ERK phosphorylation (ERK) was “inhibited”. For the same compound, the “nicotinamide adenine dinucleotide (NAD+) levels” value [5] was “reduced”, the viability ([6]; A375 and WM9 melanoma cells, 5 μM, 72 h (FIG. 5B)) was “inhibited the viability” and the cell proliferation ([6]; BRAFV600E human melanoma cells, data not shown) was “inhibited cell proliferation”.

For N#CC(=C(/N)Sc1ccccc1N)/C(C#N)=C(\N)Sc1ccccc1N [U0126], the NAMPT expression (NAMPT [1]; [12]) was “inhibition of NAMPT expression” and the ERK phosphorylation levels (ERK) was “inhibition of ERK phosphorylation levels”.

In the case of COc1cccc(-c2cc(=O)c3ccccc3o2)c1N [PD98059], the NAMPT expression (NAMPT [1]; [12]) is reported as “inhibition of NAMPT expression” and the ERK phosphorylation levels (ERK) is reported as “inhibition of ERK phosphorylation levels”.

For O=C(NOC[C@H](O)CO)c1ccc(F)c(F)c1Nc1ccc(I)cc1F [PD0325901], the NAMPT expression (NAMPT [7]) is given as “inhibition of NAMPT expression”.

With O=C(/C=C/c1cccnc1)NCCCCC1CCN(C(=O)c2ccccc2)CC1 [FK866] the “tumor growth of BRAFi-resistant WM9 xenografts” value [3] was “inhibited tumor growth”, the “PLX4032 sensitivity in BRAFi-resistant cells” value ([8]; A375R and WM9R, PLX4032 5 μM) was “restored PLX4032 sensitivity” and the melanoma cell death ([8]; BRAFi-resistant melanoma cells, both in vitro and in vivo) was “caused melanoma cell death”. For the same compound, the “weight loss in the treated mice” value [9] was “no weight loss”, the NAMPT expression (NAMPT [1]; A375 and WM9 cells, NAMPT siRNA or FK866) was “did not affect” and the “intracellular levels of NAD+” value ([2]; A375 and WM9 melanoma cell lines, FIG. 4A) was “dramatically decreased”. The “melanoma progression (A375R xenograft)” value ([10]; FK866 1.5 mg/kg and 15 mg/kg, FIG. 5E) was “dose-dependently reduced”, the “NAD+ in treated tumors” value ([10]; FK866-treated tumors, data not shown) was “reduction” and the “WM9 melanoma cell xenograft growth” value [11] was “impaired”. The cell proliferation ([6]; A375 and WM9 melanoma cells, counted each day, FIG. 4B) was “impaired cell proliferation”.
